Values after ≈ are worked out from the molar mass of the structure shown.
Legend:
Assay type in all cases: functional
[1] = system: Candida tropicalis; assay: Antifungal activity against Candida tropicalis ATCC 1369 assessed as inhibition of fungal growth measured after 72 hrs by CLSI based liquid medium dilution method
[2] = system: Candida albicans; assay: Antifungal activity against Candida albicans ATCC SC5314 assessed as inhibition of fungal growth measured after 72 hrs by CLSI based liquid medium dilution method
[3] = system: Pichia kudriavzevii; assay: Antifungal activity against Candida krusei ATCC 6258 assessed as inhibition of fungal growth measured after 72 hrs by CLSI based liquid medium dilution method
[4] = system: Aspergillus fumigatus; assay: Antifungal activity against Aspergillus fumigatus KM8001 assessed as inhibition of fungal growth measured after 72 hrs by CLSI based liquid medium dilution method
[5] = system: Cryptococcus neoformans; assay: Antifungal activity against Cryptococcus neoformans assessed as inhibition of fungal growth measured after 72 hrs by CLSI based liquid medium dilution method
[6] = system: Candida albicans; assay: Antifungal activity against fluconazole-resistant Candida albicans 632 assessed as inhibition of fungal growth measured after 72 hrs by CLSI based liquid medium dilution method
[7] = system: Candida albicans; assay: Antifungal activity against fluconazole-resistant Candida albicans 904 assessed as inhibition of fungal growth measured after 72 hrs by CLSI based liquid medium dilution method
[8] = system: Candida albicans; assay: Antifungal activity against fluconazole-resistant Candida albicans CaR assessed as inhibition of fungal growth measured after 72 hrs by CLSI based liquid medium dilution method
[9] = system: Candida albicans; assay: Antifungal activity against fluconazole-resistant Candida albicans 17# assessed as inhibition of fungal growth measured after 72 hrs by CLSI based liquid medium dilution method
[10] = system: Candida albicans; assay: Antifungal activity against fluconazole-resistant Candida albicans 901 assessed as inhibition of fungal growth measured after 72 hrs by CLSI based liquid medium dilution method

SMILES | MIC50 [1] | MIC50 [2] | MIC50 [3] | MIC50 [4] | MIC50 [5] | MIC50 [6] | MIC50 [7] | MIC50 [8] | MIC50 [9] | MIC50 [10]
COc1ccc2cc([C@H](C)C(=O)OC(Cn3cnnn3)c3ccc(F)cc3)ccc2c1 (stereo not given in full) | 2 µg/mL (≈ 4.76 µM) | 1 µg/mL (≈ 2.38 µM) | 0.5 µg/mL (≈ 1.19 µM) | > 8 µg/mL | 1 µg/mL (≈ 2.38 µM) | – | – | – | – | –
C[C@H](C(=O)N[C@H](Cn1ccnc1)c1ccccc1)c1cccc(C(=O)c2ccccc2)c1 | 2 µg/mL (≈ 4.72 µM) | 1 µg/mL (≈ 2.36 µM) | 1 µg/mL (≈ 2.36 µM) | > 8 µg/mL | 0.5 µg/mL (≈ 1.18 µM) | – | – | – | – | –
C[C@H](C(=O)N(C)CC(O)(Cn1ccnc1)c1ccc(F)cc1)c1ccc(-c2ccccc2)c(F)c1 (stereo not given in full) | 0.25 µg/mL (≈ 0.526 µM) | 0.25 µg/mL (≈ 0.526 µM) | 0.25 µg/mL (≈ 0.526 µM) | 4 µg/mL (≈ 8.41 µM) | 0.5 µg/mL (≈ 1.05 µM) | – | – | – | – | –
C[C@H](C(=O)OC(Cn1cnnn1)c1ccc(F)cc1)c1ccc(-c2ccccc2)c(F)c1 (stereo not given in full) | 0.25 µg/mL (≈ 0.575 µM) | 0.5 µg/mL (≈ 1.15 µM) | 0.5 µg/mL (≈ 1.15 µM) | 4 µg/mL (≈ 9.21 µM) | 1 µg/mL (≈ 2.3 µM) | – | – | – | – | –
C[C@H](C(=O)N[C@H](Cn1ccnc1)c1ccccc1)c1ccc(-c2ccccc2)c(F)c1 | 0.5 µg/mL (≈ 1.21 µM) | 0.5 µg/mL (≈ 1.21 µM) | 0.25 µg/mL (≈ 0.605 µM) | 4 µg/mL (≈ 9.67 µM) | 0.5 µg/mL (≈ 1.21 µM) | – | – | – | – | –
COc1ccc2cc([C@H](C)C(=O)N[C@H](Cn3ccnc3)c3ccccc3)ccc2c1 | 0.5 µg/mL (≈ 1.25 µM) | 1 µg/mL (≈ 2.5 µM) | 0.5 µg/mL (≈ 1.25 µM) | > 8 µg/mL | 1 µg/mL (≈ 2.5 µM) | – | – | – | – | –
C[C@H](C(=O)N[C@H](Cn1cncn1)c1ccccc1)c1ccc(-c2ccccc2)c(F)c1 | 0.25 µg/mL (≈ 0.603 µM) | 0.5 µg/mL (≈ 1.21 µM) | 0.5 µg/mL (≈ 1.21 µM) | 4 µg/mL (≈ 9.65 µM) | 0.5 µg/mL (≈ 1.21 µM) | – | – | – | – | –
C[C@H](C(=O)N(C)CC(O)(Cn1ccnc1)c1ccc(F)cc1)c1cccc(C(=O)c2ccccc2)c1 (stereo not given in full) | 0.5 µg/mL (≈ 1.03 µM) | 0.5 µg/mL (≈ 1.03 µM) | 1 µg/mL (≈ 2.06 µM) | > 8 µg/mL | 0.5 µg/mL (≈ 1.03 µM) | – | – | – | – | –
COc1ccc2cc([C@H](C)C(=O)N(C)CC(O)(Cn3ccnc3)c3ccc(F)cc3)ccc2c1 (stereo not given in full) | 0.25 µg/mL (≈ 0.542 µM) | 0.5 µg/mL (≈ 1.08 µM) | 1 µg/mL (≈ 2.17 µM) | > 8 µg/mL | 1 µg/mL (≈ 2.17 µM) | – | – | – | – | –
C[C@H](C(=O)OC(Cn1ccnc1)c1ccc(F)cc1)c1ccc(CC2CCCC2=O)cc1 (stereo not given in full) | 2 µg/mL (≈ 4.6 µM) | 2 µg/mL (≈ 4.6 µM) | 1 µg/mL (≈ 2.3 µM) | > 8 µg/mL | 2 µg/mL (≈ 4.6 µM) | – | – | – | – | –
C[C@H](C(=O)N(C)CC(O)(Cn1ccnc1)c1ccc(Cl)cc1)c1cccc(C(=O)c2ccccc2)c1 (stereo not given in full) | 1 µg/mL (≈ 1.99 µM) | 0.5 µg/mL (≈ 0.996 µM) | 0.5 µg/mL (≈ 0.996 µM) | 4 µg/mL (≈ 7.97 µM) | 0.5 µg/mL (≈ 0.996 µM) | – | – | – | – | –
C[C@H](C(=O)OC(Cn1cnnn1)c1ccc(F)cc1)c1cccc(C(=O)c2ccccc2)c1 (stereo not given in full) | 1 µg/mL (≈ 2.25 µM) | 0.5 µg/mL (≈ 1.12 µM) | 0.5 µg/mL (≈ 1.12 µM) | > 8 µg/mL | 0.5 µg/mL (≈ 1.12 µM) | – | – | – | – | –
C[C@H](C(=O)OC(Cn1cnnn1)c1ccc(Cl)cc1)c1ccc(-c2ccccc2)c(F)c1 (stereo not given in full) | 1 µg/mL (≈ 2.22 µM) | 1 µg/mL (≈ 2.22 µM) | 0.25 µg/mL (≈ 0.554 µM) | 2 µg/mL (≈ 4.44 µM) | 0.5 µg/mL (≈ 1.11 µM) | – | – | – | – | –
C[C@H](C(=O)N[C@H](Cn1cncn1)c1ccccc1)c1ccc(CC2CCCC2=O)cc1 (stereo not given in full) | 2 µg/mL (≈ 4.8 µM) | 1 µg/mL (≈ 2.4 µM) | 0.5 µg/mL (≈ 1.2 µM) | > 8 µg/mL | 2 µg/mL (≈ 4.8 µM) | – | – | – | – | –
C[C@H](C(=O)N[C@H](Cn1ccnc1)c1ccccc1)c1ccc(CC2CCCC2=O)cc1 (stereo not given in full) | 0.5 µg/mL (≈ 1.2 µM) | 2 µg/mL (≈ 4.81 µM) | 0.5 µg/mL (≈ 1.2 µM) | 4 µg/mL (≈ 9.63 µM) | 1 µg/mL (≈ 2.41 µM) | – | – | – | – | –
COc1ccc2cc([C@H](C)C(=O)N[C@H](Cn3cncn3)c3ccccc3)ccc2c1 | 0.25 µg/mL (≈ 0.624 µM) | 0.25 µg/mL (≈ 0.624 µM) | 0.25 µg/mL (≈ 0.624 µM) | 4 µg/mL (≈ 9.99 µM) | 1 µg/mL (≈ 2.5 µM) | – | – | – | – | –
C[C@H](C(=O)N(C)CC(O)(Cn1ccnc1)c1ccc(Cl)cc1Cl)c1ccc(-c2ccccc2)c(F)c1 (stereo not given in full) | 0.25 µg/mL (≈ 0.475 µM) | 0.25 µg/mL (≈ 0.475 µM) | 0.5 µg/mL (≈ 0.95 µM) | 4 µg/mL (≈ 7.6 µM) | 0.5 µg/mL (≈ 0.95 µM) | – | – | – | – | –
C[C@H](C(=O)OC(Cn1cnnn1)c1ccc(Cl)cc1)c1cccc(C(=O)c2ccccc2)c1 (stereo not given in full) | 2 µg/mL (≈ 4.34 µM) | 0.5 µg/mL (≈ 1.08 µM) | 1 µg/mL (≈ 2.17 µM) | > 8 µg/mL | 0.5 µg/mL (≈ 1.08 µM) | – | – | – | – | –
C[C@H](C(=O)N[C@H](Cn1cncn1)c1ccccc1)c1cccc(C(=O)c2ccccc2)c1 | 1 µg/mL (≈ 2.36 µM) | 1 µg/mL (≈ 2.36 µM) | 0.5 µg/mL (≈ 1.18 µM) | 2 µg/mL (≈ 4.71 µM) | 2 µg/mL (≈ 4.71 µM) | – | – | – | – | –
C[C@H](C(=O)OC(Cn1ccnc1)c1ccc(F)cc1)c1cccc(C(=O)c2ccccc2)c1 (stereo not given in full) | 2 µg/mL (≈ 4.52 µM) | 0.5 µg/mL (≈ 1.13 µM) | 0.5 µg/mL (≈ 1.13 µM) | 4 µg/mL (≈ 9.04 µM) | 0.5 µg/mL (≈ 1.13 µM) | – | – | – | – | –
COc1ccc2cc([C@H](C)C(=O)OC(Cn3ccnc3)c3ccc(F)cc3)ccc2c1 (stereo not given in full) | 0.5 µg/mL (≈ 1.19 µM) | 0.5 µg/mL (≈ 1.19 µM) | 2 µg/mL (≈ 4.78 µM) | 4 µg/mL (≈ 9.56 µM) | 1 µg/mL (≈ 2.39 µM) | – | – | – | – | –
C[C@H](C(=O)OC(Cn1cnnn1)c1ccc(F)cc1)c1ccc(CC2CCCC2=O)cc1 (stereo not given in full) | 2 µg/mL (≈ 4.58 µM) | 1 µg/mL (≈ 2.29 µM) | 0.5 µg/mL (≈ 1.15 µM) | > 8 µg/mL | 2 µg/mL (≈ 4.58 µM) | – | – | – | – | –
COc1ccc2cc([C@H](C)C(=O)OC(Cn3cnnn3)c3ccc(Cl)cc3)ccc2c1 (stereo not given in full) | 0.5 µg/mL (≈ 1.14 µM) | 0.5 µg/mL (≈ 1.14 µM) | 0.25 µg/mL (≈ 0.572 µM) | 4 µg/mL (≈ 9.16 µM) | 0.5 µg/mL (≈ 1.14 µM) | – | – | – | – | –
COc1ccc2cc([C@H](C)C(=O)N(C)CC(O)(Cn3ccnc3)c3ccc(Cl)cc3)ccc2c1 (stereo not given in full) | 1 µg/mL (≈ 2.09 µM) | 0.5 µg/mL (≈ 1.05 µM) | 1 µg/mL (≈ 2.09 µM) | > 8 µg/mL | 2 µg/mL (≈ 4.18 µM) | – | – | – | – | –
C[C@H](C(=O)OC(Cn1cnnn1)c1ccc(Cl)cc1)c1ccc(CC2CCCC2=O)cc1 (stereo not given in full) | 1 µg/mL (≈ 2.21 µM) | 2 µg/mL (≈ 4.42 µM) | 2 µg/mL (≈ 4.42 µM) | > 8 µg/mL | 4 µg/mL (≈ 8.83 µM) | – | – | – | – | –
CC(=O)N1CCN(c2ccc(OCC3COC(Cn4ccnc4)(c4ccc(Cl)cc4Cl)O3)cc2)CC1 (stereo not given) [KETOCONAZOLE] | 0.5 µg/mL (≈ 0.941 µM) | 1 µg/mL (≈ 1.88 µM) | 0.5 µg/mL (≈ 0.941 µM) | > 8 µg/mL | 1 µg/mL (≈ 1.88 µM) | > 8 µg/mL | > 8 µg/mL | 4 µg/mL (≈ 7.53 µM) | 4 µg/mL (≈ 7.53 µM) | 4 µg/mL (≈ 7.53 µM)
COc1ccc2cc([C@H](C)C(=O)N(C)CC(O)(Cn3ccnc3)c3ccc(Cl)cc3Cl)ccc2c1 (stereo not given in full) | 0.25 µg/mL (≈ 0.488 µM) | 0.5 µg/mL (≈ 0.976 µM) | 2 µg/mL (≈ 3.9 µM) | 4 µg/mL (≈ 7.81 µM) | 0.5 µg/mL (≈ 0.976 µM) | – | – | – | – | –

Source: ChEMBL document CHEMBL5214990, “Novel Aryl Alkamidazole Derivatives as Multifunctional Antifungal Inhibitors: Design, Synthesis, and Biological Evaluation” (J Med Chem, 2022)
